Measurements as given in patent EP0068408A1 (priority 1981, dated 1983).
≈ marks a conversion by molar mass, not a printed value. Read-outs that look alike come from different tables or passages of the source.

Key:
[1] = Acute toxicity in mice (LD50); assay type: in vivo; settings: ddY male mice, suspended in 5% Arabic gum solution, observed for 7 days; for LD50 at 168 h: mouse, in vivo
Experimental: Experimental Example 7: Acute Toxicity in Mice
Each compound of the invention was suspended in 5% Arabic gum solution and given orally (p.o.) or intraperitoneally (i.p.) to groups of ten ddY male mice weighed from 24 to 26 g at the dosage volume of 10 ml/kg. […] LD50 was determined according to the method of Wilcoxon and Litchfield.

Influenza B = test: microbe, parasite or virus in culture; assay type: cell-based
influenza A0 virus = test: animal or person; assay type: in vivo, mice; settings: for protective action against death due to the infection: result in words, Tables 3 and 4
Coxsackie Type B5 = test: microbe, parasite or virus in culture; assay type: cell-based; settings: virus G = Coxsackie Type B5
Influenza A1 = test: microbe, parasite or virus in culture; assay type: cell-based
Influenza A0 = test: microbe, parasite or virus in culture; assay type: cell-based; settings: virus A = Influenza A0, MDCK, Vero and HEL cells, 2 or 3 days
Rhino = test: microbe, parasite or virus in culture; assay type: cell-based
Parainfluenza Type 3 = test: microbe, parasite or virus in culture; assay type: cell-based; settings: virus E = Parainfluenza Type 3
ECHO = test: microbe, parasite or virus in culture; assay type: cell-based
influenza virus A/WSN = test: animal or person; assay type: in vivo, mice; settings: in Mus musculus, 360 h, read-out: Survival rate
[2] = ip, i.p., read-out: LD50 value, Intraperitoneal administration
[3] = po, p.o., read-out: LD50 value, Oral administration
[4] = Mus musculus, 360 h, oral, twice a day for 14 days, survivors at 15th day, read-out: Survival rate
[5] = Mus musculus, ip, 360 h, intraperitoneal, twice a day for 14 days, survivors at 15th day, read-out: Survival rate

| Compound | LD50 at 168 h [1, 2] | LD50 at 168 h [1, 3] | MIC (Influenza B) | responders at 300 mg/kg (influenza A0 virus; [4]) | responders at 100 mg/kg (influenza A0 virus; [5]) | MIC (Coxsackie Type B5) | MIC (Influenza A1) | MIC (Influenza A0) | MIC (Rhino) | MIC (Parainfluenza Type 3) | MIC (ECHO) | further results |
| --- | --- | --- | --- | --- | --- | --- | --- | --- | --- | --- | --- | --- |
| CNS(=O)(=O)c1cc(C(=O)O)ccc1Cl [Compound 1] |  |  |  |  |  |  |  |  |  |  |  | LD50 value, Intraperitoneal administration ([1]; i.p.): >1,000 mg/kg; LD50 value, Oral administration ([1]; p.o.): >3,000 mg/kg |
| NS(=O)(=O)c1cc(C(=O)O)c(Br)cc1Cl [Compound 18] | > 1000 mg/kg | > 3000 mg/kg | 300 µg/mL (≈ 954 µM) | 70% | 70% | 30 µg/mL (≈ 95.4 µM) | 300 µg/mL (≈ 954 µM) | 30 µg/mL (≈ 95.4 µM) | 300 µg/mL (≈ 954 µM) | 300 µg/mL (≈ 954 µM) | 3 µg/mL (≈ 9.54 µM) | responders at 100 mg/kg (influenza A0 virus; [4]): 50%; responders at 30 mg/kg (influenza A0 virus; [5]): 50%; protective action against death due to the infection (influenza A0 virus): extremely excellent activity |
| NC(=O)C(=O)NNS(=O)(=O)c1cc(C(=O)O)c(Cl)cc1Cl [Compound 24] | > 1000 mg/kg | > 3000 mg/kg | 300 µg/mL (≈ 842 µM) | 50% | 40% | 300 µg/mL (≈ 842 µM) | 300 µg/mL (≈ 842 µM) | 100 µg/mL (≈ 281 µM) | 100 µg/mL (≈ 281 µM) | 300 µg/mL (≈ 842 µM) | 300 µg/mL (≈ 842 µM) |  |
| CCOC(=O)c1cc(S(N)(=O)=O)c(F)cc1Cl [Compound 42] | > 1000 mg/kg | > 3000 mg/kg |  |  |  |  |  |  |  |  |  | responders at 100 mg/kg (influenza virus A/WSN; po): 40%; responders at 300 mg/kg (influenza virus A/WSN; po): 50% |
| N=C(N)NNS(=O)(=O)c1cc(C(=O)O)c(Cl)cc1Cl [Compound 22] | > 1000 mg/kg | > 3000 mg/kg | 300 µg/mL (≈ 917 µM) | 40% | 40% | 300 µg/mL (≈ 917 µM) | 300 µg/mL (≈ 917 µM) | 100 µg/mL (≈ 306 µM) | 300 µg/mL (≈ 917 µM) | 300 µg/mL (≈ 917 µM) | 100 µg/mL (≈ 306 µM) |  |
| CC(C)OC(=O)c1cc(S(N)(=O)=O)c(Cl)cc1Cl [Compound 34] | > 1000 mg/kg | > 3000 mg/kg |  |  |  |  |  |  |  |  |  | responders at 30 mg/kg (influenza virus A/WSN; ip): 30%; responders at 100 mg/kg (influenza virus A/WSN; ip): 40% |
| NS(=O)(=O)c1cc(C(=O)O)cc(Cl)c1Cl [Compound 20] | > 1000 mg/kg | > 3000 mg/kg | 100 µg/mL (≈ 370 µM) | 80% | 70% | 300 µg/mL (≈ 1110 µM) | 100 µg/mL (≈ 370 µM) | 10 µg/mL (≈ 37 µM) | 30 µg/mL (≈ 111 µM) | 30 µg/mL (≈ 111 µM) | 100 µg/mL (≈ 370 µM) | responders at 30 mg/kg (influenza A0 virus; [4]): 40%; responders at 100 mg/kg (influenza A0 virus; [4]): 60%; responders at 10 mg/kg (influenza A0 virus; Mus musculus, ip, 360 h, intraperitoneal, 10 mg/kg, twice a day for 14 days, survivors at 15th day, read-out: Survival rate): 40%; responders at 30 mg/kg (influenza A0 virus; [5]): 60%; protective action against death due to the infection (influenza A0 virus): extremely excellent activity |
| NC(=O)NNS(=O)(=O)c1cc(C(=O)O)c(Cl)cc1Cl [Compound 23] | > 1000 mg/kg | > 3000 mg/kg | 300 µg/mL (≈ 914 µM) | 40% | 40% | 300 µg/mL (≈ 914 µM) | 300 µg/mL (≈ 914 µM) | 100 µg/mL (≈ 305 µM) | 300 µg/mL (≈ 914 µM) | 100 µg/mL (≈ 305 µM) | 300 µg/mL (≈ 914 µM) |  |
| O=C(O)c1ccc(Cl)c(S(=O)(=O)Nc2ccccc2)c1 [Compound 9] |  |  |  |  |  |  |  |  |  |  |  | LD50 value, Oral administration ([1]; p.o.): >3,000 mg/kg |
| O=C(O)c1ccc(Cl)c(S(=O)(=O)N2CCOCC2)c1 [Compound 11] |  |  |  |  |  |  |  |  |  |  |  | LD50 value, Intraperitoneal administration ([1]; i.p.): >1,000 mg/kg; LD50 value, Oral administration ([1]; p.o.): >3,000 mg/kg |
| NS(=O)(=O)c1cc(Cl)cc(C(=O)O)c1 [Compound 25] | > 1000 mg/kg | > 3000 mg/kg | 100 µg/mL (≈ 424 µM) | 50% | 40% | 300 µg/mL (≈ 1270 µM) | 300 µg/mL (≈ 1270 µM) | 30 µg/mL (≈ 127 µM) | 300 µg/mL (≈ 1270 µM) | 300 µg/mL (≈ 1270 µM) | 300 µg/mL (≈ 1270 µM) |  |
| CCOC(=O)c1cc(S(N)(=O)=O)c(Cl)cc1Cl [Compound 32] | > 1000 mg/kg | > 3000 mg/kg |  |  |  |  |  |  |  |  |  | responders at 100 mg/kg (influenza virus A/WSN; po): 40%; responders at 300 mg/kg (influenza virus A/WSN; po): 50% |
| CC(C)NS(=O)(=O)c1cc(C(=O)O)ccc1Cl [Compound 8] |  |  |  |  |  |  |  |  |  |  |  | LD50 value, Intraperitoneal administration ([1]; i.p.): >1,000 mg/kg; LD50 value, Oral administration ([1]; p.o.): >3,000 mg/kg |
| CCC(C)OC(=O)c1cc(S(N)(=O)=O)c(Cl)cc1Cl (stereo not shown) [Compound 36] | > 1000 mg/kg | > 3000 mg/kg |  |  |  |  |  |  |  |  |  | responders at 30 mg/kg (influenza virus A/WSN; ip): 30%; responders at 100 mg/kg (influenza virus A/WSN; ip): 40% |
